In assay [1] the target is α4β2 nAChR (Homo sapiens (Human), UniProt P17787+P43681). Nature of the assay: nAChR binding affinity, α4β2 subtype.
Assay [2] has as its target α3β4 nAChR (Homo sapiens (Human), UniProt P30926+P32297). Nature of the assay: nAChR binding affinity, α3β4 subtype. The following applies: Table 2.
Assay [3] deals with human α7 nAChR (Homo sapiens (Human), UniProt P36544). Kind of assay: biochemical. The format is binding. Conditions: for nAChR subtype preference / selectivity: in words, from Ki at α7, α4β2, α3β4.
Sequence of human α7 nAChR (P36544 23-502 limits assumed): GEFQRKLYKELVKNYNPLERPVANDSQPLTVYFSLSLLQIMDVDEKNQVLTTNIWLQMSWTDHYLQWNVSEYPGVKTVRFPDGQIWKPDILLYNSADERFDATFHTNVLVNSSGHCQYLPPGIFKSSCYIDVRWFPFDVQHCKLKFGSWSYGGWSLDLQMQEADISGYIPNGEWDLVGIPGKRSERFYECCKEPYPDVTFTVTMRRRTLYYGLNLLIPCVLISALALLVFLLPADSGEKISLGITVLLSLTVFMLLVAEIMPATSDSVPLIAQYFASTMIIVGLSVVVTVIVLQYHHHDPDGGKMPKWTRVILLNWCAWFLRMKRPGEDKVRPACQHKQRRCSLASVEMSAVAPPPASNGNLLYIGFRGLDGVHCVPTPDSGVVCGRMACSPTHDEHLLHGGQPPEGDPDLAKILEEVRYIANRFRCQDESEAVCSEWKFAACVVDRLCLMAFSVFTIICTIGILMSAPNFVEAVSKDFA
Assay [4] relates to citric acid-induced cough in guinea pigs. Kind of assay: Citric acid-induced cough in guinea pigs, intraperitoneal injection (Example 27).
Assay [5] has the same test system. Nature of the assay: Citric acid-induced cough in guinea pigs, dry powder insufflation, nebulisation, oral and intraperitoneal administration (Example 28). The format is in vivo, guinea pig. As to the method: The mean concentration of citric acid was 1156.0±111.8 μg/L for both routes.
Regarding oral administration, the duration between compound administration and start of citric acid challenge was 30 minutes. The data was compared to atmospheric air (control).
Regarding intraperitoneal administration, compounds were administered approximately 10-15 mins before the cough challenge (citric acid inhalation challenge). Test compounds were dosed at between 1-30 mg/kg (as described herein for each experiment) while the positive control (codeine) was dosed at 30 mg/kg, in each case using a dosing volume of 10 ml/kg, by a single intraperitoneal injection.

Setting [6] is: Table 1, [125I] α-Bungarotoxin, Cheng-Prusoff, read-out: α7 Ki.

Where two headings read alike, the source gives them in different places.

The text below walks through data of US20250270203A1, “NICOTINIC ACETYLCHOLINE RECEPTOR LIGANDS” (Philip Morris Products S.A., priority 2022, published 2025).

Sequence of α4β2 nAChR (P43681 29-627): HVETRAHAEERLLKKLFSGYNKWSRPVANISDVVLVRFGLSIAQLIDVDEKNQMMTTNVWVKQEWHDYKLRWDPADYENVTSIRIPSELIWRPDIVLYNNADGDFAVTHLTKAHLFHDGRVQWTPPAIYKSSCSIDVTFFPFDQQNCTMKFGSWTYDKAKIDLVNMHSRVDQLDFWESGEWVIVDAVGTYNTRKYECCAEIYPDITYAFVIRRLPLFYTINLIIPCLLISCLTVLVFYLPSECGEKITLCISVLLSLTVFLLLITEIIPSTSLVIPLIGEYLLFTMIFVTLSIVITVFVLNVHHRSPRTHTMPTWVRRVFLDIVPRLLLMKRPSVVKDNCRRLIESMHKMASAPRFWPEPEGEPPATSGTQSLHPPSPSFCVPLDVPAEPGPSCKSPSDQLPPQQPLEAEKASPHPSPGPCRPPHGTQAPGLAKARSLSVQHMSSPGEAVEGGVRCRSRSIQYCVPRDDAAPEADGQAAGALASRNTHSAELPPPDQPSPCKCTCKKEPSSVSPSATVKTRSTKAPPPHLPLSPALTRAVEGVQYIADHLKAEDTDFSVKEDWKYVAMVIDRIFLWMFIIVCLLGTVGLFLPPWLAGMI
Sequence of α4β2 nAChR (P17787 26-502): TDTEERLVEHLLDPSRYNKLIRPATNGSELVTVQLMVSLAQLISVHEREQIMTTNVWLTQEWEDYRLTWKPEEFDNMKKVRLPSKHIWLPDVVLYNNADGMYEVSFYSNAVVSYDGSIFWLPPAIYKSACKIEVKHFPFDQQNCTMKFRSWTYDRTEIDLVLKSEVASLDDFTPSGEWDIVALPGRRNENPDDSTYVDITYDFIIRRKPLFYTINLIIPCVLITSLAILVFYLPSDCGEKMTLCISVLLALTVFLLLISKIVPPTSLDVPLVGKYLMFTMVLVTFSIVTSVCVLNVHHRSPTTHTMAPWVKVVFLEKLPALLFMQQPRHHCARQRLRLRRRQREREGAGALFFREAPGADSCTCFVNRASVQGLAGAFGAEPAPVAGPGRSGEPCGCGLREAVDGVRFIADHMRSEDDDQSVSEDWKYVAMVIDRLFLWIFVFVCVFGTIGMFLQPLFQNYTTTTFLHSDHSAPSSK
Sequence of α3β4 nAChR (P32297 32-505): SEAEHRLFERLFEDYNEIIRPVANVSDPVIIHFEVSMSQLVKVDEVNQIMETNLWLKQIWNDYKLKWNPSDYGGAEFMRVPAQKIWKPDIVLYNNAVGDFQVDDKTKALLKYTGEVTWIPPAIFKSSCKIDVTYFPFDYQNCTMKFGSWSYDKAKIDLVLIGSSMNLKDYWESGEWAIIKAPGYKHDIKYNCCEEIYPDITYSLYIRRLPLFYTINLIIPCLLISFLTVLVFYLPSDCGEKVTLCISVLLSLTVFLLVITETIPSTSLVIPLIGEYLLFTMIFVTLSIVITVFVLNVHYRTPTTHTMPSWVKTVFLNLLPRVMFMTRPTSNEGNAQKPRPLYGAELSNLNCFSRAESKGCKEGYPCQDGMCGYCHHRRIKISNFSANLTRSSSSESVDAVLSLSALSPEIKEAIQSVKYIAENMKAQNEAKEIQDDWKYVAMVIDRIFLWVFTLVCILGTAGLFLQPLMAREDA
Sequence of α3β4 nAChR (P30926 22-498): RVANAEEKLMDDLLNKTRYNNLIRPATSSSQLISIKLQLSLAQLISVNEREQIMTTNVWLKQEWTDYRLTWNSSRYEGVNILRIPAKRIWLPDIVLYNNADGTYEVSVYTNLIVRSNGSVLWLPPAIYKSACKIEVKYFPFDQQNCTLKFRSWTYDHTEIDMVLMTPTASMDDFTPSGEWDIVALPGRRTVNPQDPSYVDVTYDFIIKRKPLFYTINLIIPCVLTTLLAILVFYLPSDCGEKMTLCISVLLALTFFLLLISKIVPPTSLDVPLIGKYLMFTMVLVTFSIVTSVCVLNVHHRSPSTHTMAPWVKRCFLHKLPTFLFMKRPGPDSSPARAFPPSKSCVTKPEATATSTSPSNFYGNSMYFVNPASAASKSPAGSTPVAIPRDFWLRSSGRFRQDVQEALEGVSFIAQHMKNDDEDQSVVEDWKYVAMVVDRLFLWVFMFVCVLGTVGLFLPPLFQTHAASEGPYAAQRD

One may read the Ki as a measure of affinity in units of concentration, obtained from inhibition or displacement. With `c1cncc(C[C@@H]2[C@@H](Oc3nnc(-c4ccc5[nH]ccc5c4)s3)C3CCN2CC3)c1` (racemic) [Compound 16, trans-2-(1H-Indol-5-yl)-5-[2-(3-pyridylmethyl)quinuclidin-3-yl]oxy-1,3,4-thiadiazole], the inhibition constant (Ki) came out at 220 nM in assay [1] (Table 2, read-out: Ki α4β2) and 440 nM in assay [2].
`Nc1nc2ccc(-c3ccc(OC4C5CCN(CC5)C4Cc4cccnc4)nn3)cc2s1` (stereo not drawn) [Compound 12, trans-6-[6-[2-(3-Pyridylmethyl)quinuclidin-3-yl]oxypyridazin-3-yl]-1,3-benzothiazol-2-amine]: the Ki in assay [1] (Table 2, read-out: Ki α4β2) was determined as 50 nM; in assay [2] it was 1080 nM; in assay [3] (setting [6]), 19 nM; in assay [3] (Table 2, read-out: Ki α7), 18.8 nM.
In turn, `c1cncc(C[C@@H]2[C@@H](Oc3ccc4ccccc4n3)C3CCN2CC3)c1` (relative stereo) [Compound 18, trans-2-[2-(3-Pyridylmethyl)quinuclidin-3-yl]oxyquinoline] had a Ki in assay [3] of 2920 nM.
With `c1ccc(-c2ccc(O[C@H]3C4CCN(CC4)[C@@H]3Cc3cccnc3)nn2)cc1` (relative stereo) [Compound 19, trans-3-(6-Phenylpyridazin-3-yl)oxy-2-(3-pyridylmethyl) quinuclidine], the Ki in assay [3] was determined as 100 nM.
On to `c1cncc(C[C@@H]2[C@@H](Oc3cnc(-c4ccc5[nH]ccc5c4)cn3)C3CCN2CC3)c1` (racemic) [Compound 9, trans-5-[5-[2-(3-Pyridylmethyl)quinuclidin-3-yl]oxypyrazin-2-yl]-1H-indole], for which, in assay [3], affinity was put at a Ki of 240 nM.
On the same count and under the same terms, for `c1cncc(C[C@@H]2[C@@H](Oc3ccc(-c4ccc5[nH]ccc5c4)nn3)C3CCN2CC3)c1` [Compound 11, trans-5-[6-[2-(3-Pyridylmethyl)quinuclidin-3-yl]oxypyridazin-3-yl]-1H-indole] the value was 1 nM; for `c1ccc(-c2nnc(O[C@H]3C4CCN(CC4)[C@@H]3Cc3cccnc3)s2)cc1` (relative stereo) [Compound 20, trans-2-Phenyl-5-[2-(3-pyridylmethyl)quinuclidin-3-yl]oxy-1,3,4-thiadiazole], 320 nM.
For `c1cncc(C[C@@H]2[C@H](Oc3ccc(-c4ccc5[nH]ccc5c4)nn3)C3CCN2CC3)c1` (relative stereo) [Compound 7, cis-5-[6-[2-(3-Pyridylmethyl)quinuclidin-3-yl]oxypyridazin-3-yl]-1H-indole], the Ki in assay [2] stood at 200 nM; in assay [3], 59 nM. Besides, the “nAChR subtype preference / selectivity” value in assay [3] was “preferably binds to the α4β2 nAChR”.
Turning to `c1cncc(C[C@@H]2[C@@H](Oc3ccc(-c4ccc5[nH]ccc5c4)nn3)C3CCN2CC3)c1` (racemic) [Compound 11, trans-5-[6-[2-(3-Pyridylmethyl)quinuclidin-3-yl]oxypyridazin-3-yl]-1H-indole], the Ki in assay [1] was determined as 73 nM; in assay [3], 1.4 nM.
Turning to `c1cncc(C[C@@H]2[C@@H](Oc3ccc(-c4ccc5[nH]ccc5c4)nn3)C3CCN2CC3)c1` [2R,3S-11, (2R,3S)-5-[6-[2-(3-Pyridylmethyl)quinuclidin-3-yl]oxypyridazin-3-yl]-1H-indole], the Ki in assay [1] (Table 2, read-out: Ki α4β2) came out at 730 nM; in assay [2] it was 1210 nM; in assay [3] (Table 2, read-out: Ki α7) it was 34 nM.
In the case of `c1cncc(C[C@@H]2[C@@H](Oc3cnc(-c4ccc5[nH]ccc5c4)cn3)C3CCN2CC3)c1` (relative stereo) [Compound 9, trans-5-[5-[2-(3-Pyridylmethyl)quinuclidin-3-yl]oxypyrazin-2-yl]-1H-indole], the Ki was determined as 230 nM in assay [1] (Table 2, read-out: Ki α4β2) and 400 nM in assay [2].
On to `c1cncc(C[C@H]2[C@H](Oc3ccc(-c4ccc5[nH]ccc5c4)nn3)C3CCN2CC3)c1` [2S,3R-11, (2S,3R)-5-[6-[2-(3-Pyridylmethyl)quinuclidin-3-yl]oxypyridazin-3-yl]-1H-indole], for which the Ki worked out at 77 nM in assay [1] (Table 2, read-out: Ki α4β2); 780 nM in assay [2]; 1 nM in assay [3] (Table 2, read-out: Ki α7). Also, in assay [3], the “nAChR subtype preference / selectivity” value was “optimal and selective interaction with α7 nAChR”.
Regarding `c1cncc(C[C@@H]2[C@@H](Oc3ccc(-c4ccc5[nH]ccc5c4)cn3)C3CCN2CC3)c1` [Compound 5, trans-5-[6-[2-(3-Pyridylmethyl)quinuclidin-3-yl]oxy-3-pyridyl]-1H-indole], the Ki in assay [3] was 58 nM.
`c1cncc(C[C@@H]2[C@@H](Oc3nnc(-c4ccc5[nH]ccc5c4)s3)C3CCN2CC3)c1` [Compound 16, trans-2-(1H-Indol-5-yl)-5-[2-(3-pyridylmethyl)quinuclidin-3-yl]oxy-1,3,4-thiadiazole]: the “number of coughs (citric acid-induced cough counts)” value in assay [4] (i.p. 1 mg/kg, p<0.0001 vs saline control (17 coughs)) is on record as 5; in assay [4] (i.p. 3 mg/kg, p<0.001 vs saline control (17 coughs)), 5; in assay [4] (i.p. 9.5 mg/kg, p<0.01 vs saline control (17 coughs)), 7. Besides, the cough incubation period in assay [4] (i.p. 1 mg/kg, p<0.001 vs saline control (206 sec)) was 548 s; in assay [4] (i.p. 3 mg/kg, p<0.01 vs saline control (206 sec)) it was 455 s; in assay [4] (i.p. 9.5 mg/kg, p<0.05 vs saline control (206 sec)), 489 s. The “citric acid-induced cough counts compared with air control” value was “significantly reduced” in assay [5] (dry powder insufflated, 1 mg/kg, p=0.0004); “significantly reduced” in assay [5] (dry powder insufflated, 2 mg/kg, p=0.0042); “significantly reduced” in assay [5] (nebulised, 0.4 mg/kg, 58 min exposure, p=0.0023); “significantly reduced” in assay [5] (orally administered, 9.5 mg/kg, p<0.05). Further, the “cough frequency compared to negative control (saline)” value in assay [5] (prophylactic intraperitoneal treatment at 1, 3 and 9.5 mg/kg, FIG. 8) was “suppression of cough frequency”. Further, the Ki in assay [3] (setting [6]) came to 11 nM.
In assay [3], `c1ccc(-c2nnc(O[C@H]3C4CCN(CC4)[C@@H]3Cc3cccnc3)s2)cc1` (racemic) [Compound 20, trans-2-Phenyl-5-[2-(3-pyridylmethyl)quinuclidin-3-yl]oxy-1,3,4-thiadiazole] came in with a Ki of 320 nM.
